Measurements: patent publication US20260365647A1, “AKT1 MODULATORS” (Alterome Therapeutics, Inc., priority 2022, published 2026)
pIC50: −log10 of the molar value.

Biological target: T1, AKT1-E17K (Homo sapiens, UniProt P31749, E17K)
T1 construct: host or cells: HEK-293 (ATCC CRL-1573)
Test: NanoBRET Target Engagement (TE) Assay
Assay type: cell-based
Source text: The NanoBRET™ Target Engagement (TE) Intracellular Kinase Assays are based on the NanoBRET™ System (Promega Corporation), an energy transfer technique designed to measure molecular proximity in living cells. The NanoBRET™ TE Assays measure the apparent affinity of test compounds by competitive displacement of the NanoBRET™ tracer compound, which is a cell permeable molecule engineered to be reversibly bound to a NanoLuc® luciferase-kinase fusion expressed in cells. For compound screening, when a test compound binds to the selected kinase, the BRET signal is attenuated. […] All cells were evaluated for viability prior to transfection and optimization of the transfection was done prior to experimentation. […] Following transfection, cells were washed and resuspended in Opti-MEM. NanoBRET assays were performed in white, 384-well plates (Corning) at a density of […]. All example compounds were prepared as concentrated stock solutions in DMSO (Sigma-Aldrich). Compounds are dissolved in DMSO to make 10 mM stock solution. […] A Labcyte ECHO 550 compound dispenser was used to facilitate compound transfer directly to cells. Cells were equilibrated for 2 hr with energy transfer probes and example compound prior to BRET measurements. […] For target engagement analysis, the energy transfer probes were added to the cells at concentrations optimized for the target in question (AKT E17K). Following compound incubation, NanoBRET NanoGlo Substrate (Promega Cat #N157D) and Extracellular Nanoluc Inhibitor (Promega Cat #N235C) was added according to the manufacturer's recommended protocol, and luminescence was measured on Envision Reader (Perkin Elmer) Multimode Luminometer equipped with 450 nmBPfilter (donor) and 600 nmLPfilter (acceptor), using 0.5 s integration time. Milli-BRET units (mBU) are calculated by multiplying the raw BRET values by 1000. Apparent tracer affinity values (EC50) were determined using the sigmoidal dose-response (variable slope). Competitive displacement data were then plotted and data were fit to determine the EC50 value for each example compound.

T1 sequence (P31749 whole entry E17K): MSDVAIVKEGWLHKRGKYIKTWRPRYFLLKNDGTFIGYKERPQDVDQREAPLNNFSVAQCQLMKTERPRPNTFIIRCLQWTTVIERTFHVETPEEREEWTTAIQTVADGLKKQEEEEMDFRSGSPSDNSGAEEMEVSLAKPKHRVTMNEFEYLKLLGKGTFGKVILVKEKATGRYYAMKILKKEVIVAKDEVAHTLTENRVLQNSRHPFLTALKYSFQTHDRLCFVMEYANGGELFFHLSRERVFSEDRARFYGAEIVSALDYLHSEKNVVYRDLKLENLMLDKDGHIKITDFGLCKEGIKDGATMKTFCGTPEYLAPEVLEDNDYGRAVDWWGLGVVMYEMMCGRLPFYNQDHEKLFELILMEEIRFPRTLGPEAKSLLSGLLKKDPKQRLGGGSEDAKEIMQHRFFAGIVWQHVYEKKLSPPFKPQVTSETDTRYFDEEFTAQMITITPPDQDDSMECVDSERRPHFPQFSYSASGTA

Structure (SMILES) | pIC50
Nc1ncccc1-c1nc2ccc(-c3ccccc3)nc2n1-c1ccc(CN2CCC(NC(=O)c3ccc(O)c(C=O)c3)CC2)cc1 [Example 7, N-(1-(4-(2-(2-Aminopyridin-3-yl)-5-phenyl-3H-imidazo[4,5-b]pyridin-3-yl)benzyl)piperidin-4-yl)-3-formyl-4-hydroxybenzamide] | > 7.82
Nc1ncccc1-c1nc2ccc(-c3ccccc3)nc2n1-c1ccc(CN2C[C@@H]3CN(c4ccc(C=O)c(O)c4)C[C@@H]3C2)cc1 [Example 133, 4-((3aR,6aS)-5-(4-(2-(2-Aminopyridin-3-yl)-5-phenyl-3H-imidazo[4,5-b]pyridin-3-yl)benzyl)hexahydropyrrolo[3,4-c]pyrrol-2(1H)-yl)-2-hydroxybenzaldehyde] | 6.22 to 7.22
Nc1ncccc1-c1nc2ccc(-c3ccccc3)nc2n1-c1ccc(CN2CCC3(CCN(c4ccc(C=O)c(O)c4)CC3)C2)cc1 [Example 85, 4-(2-(4-(2-(2-Aminopyridin-3-yl)-5-phenyl-3H-imidazo[4,5-b]pyridin-3-yl)benzyl)-2,8-diazaspiro[4.5]decan-8-yl)-2-hydroxybenzaldehyde] | 6.22 to 7.22
Nc1ncccc1-c1nc2ccc(-c3ccccc3)nc2n1-c1ccc(CN2CC3(CCN(c4ccc(C=O)c(O)c4)CC3)C2)cc1 [Example 97, 4-(2-(4-(2-(2-Aminopyridin-3-yl)-5-phenyl-3H-imidazo[4,5-b]pyridin-3-yl)benzyl)-2,7-diazaspiro[3.5]nonan-7-yl)-2-hydroxybenzaldehyde] | 6.22 to 7.22
Nc1ncccc1-c1nc2ccc(-c3ccccc3)nc2n1-c1ccc(CN2CCC(Nc3ccc(C=O)c(O)c3)CC2)cc1 [Example 47, 4-((1-(4-(2-(2-Aminopyridin-3-yl)-5-phenyl-3H-imidazo[4,5-b]pyridin-3-yl)benzyl)piperidin-4-yl)amino)-2-hydroxybenzaldehyde] | 6.22 to 7.22
Nc1ncccc1-c1nc2ccc(-c3ccccc3)nc2n1-c1ccc(CN2CCN(c3cc(O)c(C=O)c(F)c3)CC2)cc1 [Example 24, 4-(4-(4-(2-(2-Aminopyridin-3-yl)-5-phenyl-3H-imidazo[4,5-b]pyridin-3-yl)benzyl)piperazin-1-yl)-2-fluoro-6-hydroxybenzaldehyde] | 6.22 to 7.22
Nc1ncccc1-c1nc2ccc(-c3ccccc3)nc2n1-c1ccc(CN2CCN(c3ccc(C=O)c(O)c3)C3(CC3)C2)cc1 [Example 108, 4-(7-(4-(2-(2-Aminopyridin-3-yl)-5-phenyl-3H-imidazo[4,5-b]pyridin-3-yl)benzyl)-4,7-diazaspiro[2.5]octan-4-yl)-2-hydroxybenzaldehyde] | 6.22 to 7.22
Nc1ncccc1-c1nc2ccc(-c3ccccc3)nc2n1-c1ccc(CN2CCC[C@@H](NC(=O)c3ccc(O)c(C=O)c3)C2)cc1 [Example 58, (R)—N-(1-(4-(2-(2-Aminopyridin-3-yl)-5-phenyl-3H-imidazo[4,5-b]pyridin-3-yl)benzyl)piperidin-3-yl)-3-formyl-4-hydroxybenzamide] | 7.22 to 7.82
Nc1ncccc1-c1nc2ccc(-c3ccccc3)nc2n1-c1ccc(CN2CC[C@]3(CCN(c4ccc(C=O)c(O)c4)C3)C2)cc1 [Example 103, (S)-4-(7-(4-(2-(2-Aminopyridin-3-yl)-5-phenyl-3H-imidazo[4,5-b]pyridin-3-yl)benzyl)-2,7-diazaspiro[4.4]nonan-2-yl)-2-hydroxybenzaldehyde] | 6.22 to 7.22
C[C@H]1CN(Cc2ccc(-n3c(-c4cccnc4N)nc4ccc(-c5ccccc5)nc43)cc2)CCN1C(=O)c1ccc(C=O)c(O)c1 [Example 106, (S)-4-(4-(4-(2-(2-Aminopyridin-3-yl)-5-phenyl-3H-imidazo[4,5-b]pyridin-3-yl)benzyl)-2-methylpiperazine-1-carbonyl)-2-hydroxybenzaldehyde] | < 6.22
Nc1ncccc1-c1nc2ccc(-c3ccc[nH]c3=O)nc2n1-c1ccc(CN2CCN(C(=O)c3ccc(O)c(C=O)c3)CC2)cc1 [Example 14, 5-(4-(4-(2-(2-Aminopyridin-3-yl)-5-(2-oxo-1,2-dihydropyridin-3-yl)-3H-imidazo[4,5-b]pyridin-3-yl)benzyl)piperazine-1-carbonyl)-2-hydroxybenzaldehyde] | < 6.22
Nc1ncccc1-c1nc2cccnc2n1-c1ccc(CNC(=O)c2ccc(O)c(C=O)c2)cc1 [Example 2, N-(4-(2-(2-Aminopyridin-3-yl)-3H-imidazo[4,5-b]pyridin-3-yl)benzyl)-3-formyl-4-hydroxybenzamide] | 6.22 to 7.22
Nc1ncccc1-c1nc2ccc(-c3ccc(Cl)cc3)nc2n1-c1ccc(CN2CCN(C(=O)c3ccc(C=O)c(O)c3)CC2)cc1 [Example 148, 4-(4-(4-(2-(2-aminopyridin-3-yl)-5-(4-chlorophenyl)-3H-imidazo[4,5-b]pyridin-3-yl)benzyl)piperazine-1-carbonyl)-2-hydroxybenzaldehyde] | < 6.22

Continued, values first:

pIC50 | Structure (SMILES)
6.22 to 7.22 | Nc1ncccc1-c1nc2ccc(C3=CCCCC3)nc2n1-c1ccc(CN2CCN(C(=O)c3ccc(O)c(C=O)c3)CC2)cc1 [Example 150, 5-(4-(4-(2-(2-aminopyridin-3-yl)-5-(cyclohex-1-en-1-yl)-3H-imidazo[4,5-b]pyridin-3-yl)benzyl)piperazine-1-carbonyl)-2-hydroxybenzaldehyde]
6.22 to 7.22 | Nc1ncccc1-c1nc2ccc(-c3cccc(F)c3)nc2n1-c1ccc(CN2CCN(C(=O)c3ccc(C=O)c(O)c3)CC2)cc1 [Example 41, 4-(4-(4-(2-(2-Aminopyridin-3-yl)-5-(3-fluorophenyl)-3H-imidazo[4,5-b]pyridin-3-yl)benzyl)piperazine-1-carbonyl)-2-hydroxybenzaldehyde]
6.22 to 7.22 | C[C@H]1CN(Cc2ccc(-n3c(-c4cccnc4N)nc4ccc(-c5ccccc5)nc43)cc2)CCN1c1ccc(C=O)c(O)c1 [Example 107, (S)-4-(4-(4-(2-(2-aminopyridin-3-yl)-5-phenyl-3H-imidazo[4,5-b]pyridin-3-yl)benzyl)-2-methylpiperazin-1-yl)-2-hydroxybenzaldehyde]
7.22 to 7.82 | Nc1ncccc1-c1nc2ccc(-c3ccccc3)nc2n1-c1ccc(CN2CC[C@@]3(CCN(C(=O)c4ccc(O)c(C=O)c4)C3)C2)cc1 [Example 98, (R)-5-(7-(4-(2-(2-aminopyridin-3-yl)-5-phenyl-3H-imidazo[4,5-b]pyridin-3-yl)benzyl)-2,7-diazaspiro[4.4]nonane-2-carbonyl)-2-hydroxybenzaldehyde]
< 6.22 | Nc1ncccc1-c1nc2ccc(N3CCOCC3)nc2n1-c1ccc(CN2CCN(C(=O)c3ccc(O)c(C=O)c3)CC2)cc1 [Example 32, 5-(4-(4-(2-(2-Aminopyridin-3-yl)-5-morpholino-3H-imidazo[4,5-b]pyridin-3-yl)benzyl)piperazine-1-carbonyl)-2-hydroxybenzaldehyde]
6.22 to 7.22 | Nc1ncccc1-c1nc2ccc(-c3ccc(F)cc3)nc2n1-c1ccc(CN2CCN(C(=O)c3ccc(C=O)c(O)c3)CC2)cc1 [Example 144, 4-(4-(4-(2-(2-Aminopyridin-3-yl)-5-(4-fluorophenyl)-3H-imidazo[4,5-b]pyridin-3-yl)benzyl)piperazine-1-carbonyl)-2-hydroxybenzaldehyde]
6.22 to 7.22 | Nc1ncccc1-c1nc2ccc(-c3ccccc3)nc2n1-c1ccc(CN2C3CCC2CN(c2ccc(C=O)c(O)c2)C3)cc1 [Example 114, 4-(8-(4-(2-(2-Aminopyridin-3-yl)-5-phenyl-3H-imidazo[4,5-b]pyridin-3-yl)benzyl)-3,8-diazabicyclo[3.2.1]octan-3-yl)-2-hydroxybenzaldehyde]
